Target: T1, α-amylase from porcine pancreas (Sus scrofa, UniProt P00690)
T1 construct: A saline suspension of α-amylase from porcine pancreas; purchased Sigma Aldrich (Steinheim, Germany) Lot #SLBN9170V (catalogue number not given); host or cells: porcine pancreas (tissue-derived)
T1 sequence (P00690 16-511): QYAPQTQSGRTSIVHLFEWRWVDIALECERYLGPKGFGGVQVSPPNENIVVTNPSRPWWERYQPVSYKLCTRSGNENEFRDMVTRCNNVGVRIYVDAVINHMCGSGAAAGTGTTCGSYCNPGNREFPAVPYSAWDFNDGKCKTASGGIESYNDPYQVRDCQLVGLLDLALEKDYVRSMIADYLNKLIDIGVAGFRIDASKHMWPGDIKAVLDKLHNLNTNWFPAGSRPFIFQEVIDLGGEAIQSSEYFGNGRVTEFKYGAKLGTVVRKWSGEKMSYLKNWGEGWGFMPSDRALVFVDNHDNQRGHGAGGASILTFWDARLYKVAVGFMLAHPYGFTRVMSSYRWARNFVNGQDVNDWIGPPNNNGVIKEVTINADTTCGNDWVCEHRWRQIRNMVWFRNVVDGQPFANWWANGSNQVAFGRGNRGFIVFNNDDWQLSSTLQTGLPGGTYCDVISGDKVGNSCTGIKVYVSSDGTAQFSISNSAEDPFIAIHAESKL
Assay: Isothermal titration calorimetry, single injection, GalG2CNP conversion
Type: biochemical
Settings: 100 µM inhibitor, 0.95 mM substrate, 37 °C
Procedure: To evaluate the inhibitory strength of 100 µM anthocyanin-3-glucosides and black carrot anthocyanins, GalG2CNP conversion to CNP was monitored by the released heat. According to the previous study, ITC measurements were carried out in a single injection experiment set-up on a MICROCALTM PEAQ-ITC calorimeter (S/N MAL1188053, Malvern Panalytical Almelo, Netherlands). Following an equilibration time of 10 min, 1 µL α-amylase (1 µM in 50 mM MES^+ buffer) was added to 0.95 mM of the substrate with or without 100 µM of the phenolic inhibitor in the cell (Vcell = 0.207 mL). The temperature was maintained at 37 °C and the sample was stirred at 750 rpm throughout. The feedback/gain mode was set to high. The resulting heat profile was transformed and the conversion rate was plotted against the substrate concentration [S] by an origin routine template provided by Malvern® for Origin version 7.

COc1cc(-c2[o+]c3cc(O)cc(O)c3cc2O[C@@H]2O[C@H](CO)[C@@H](O)[C@H](O)[C@H]2O)ccc1O [Peo-glc, peonidin-3-glucoside]
inhibitory strength by ITC (thermogram, Michaelis Menten plot): Mlv-3-glc > Cyd-3-glc > Dpd-3-glc~Peo-3-glc

Reference: PMC7142633, “Impact of B-Ring Substitution and Acylation with Hydroxy Cinnamic Acids on the Inhibition of Porcine α-Amylase by Anthocyanin-3-Glycosides” (Foods, 2020)
